According to ChEMBL document CHEMBL3232845 (Bioorg Med Chem Lett, 2014):
pIC50: −log10 of the molar value.

Columns and labels:
[1] = molecular target: T1, Serine/threonine-protein kinase B-raf (Homo sapiens, UniProt P15056, V600E); test: Inhibition of full-length B-Raf V600E mutant (unknown origin)
[2] = molecular target: T1, Serine/threonine-protein kinase B-raf; test: Inhibition of B-Raf V600E mutant in human Malme-3M cells assessed as basal ERK phosphorylation; type: cell-based
[3] = Apparent permeability of the compound from apical to basolateral direction in pig LLC-PK1 cells; type: ADME, cell-based, Sus scrofa
[4] = Clearance in mouse at 2.5 mg/kg, iv; type: ADME, organism-based; design: dose 2.5 mg/kg, route intravenous; conditions: in vivo
[5] = Volume of distribution in mouse; type: ADME, organism-based; conditions: in vivo
[6] = AUC in mouse at 30 mg/kg, po; type: ADME, organism-based; design: dose 30 mg/kg, route oral; conditions: plasma
[7] = Oral bioavailability in mouse at 30 mg/kg; type: ADME, organism-based; conditions: in vivo

T1 sequence (P15056 2-766 V600E limits assumed): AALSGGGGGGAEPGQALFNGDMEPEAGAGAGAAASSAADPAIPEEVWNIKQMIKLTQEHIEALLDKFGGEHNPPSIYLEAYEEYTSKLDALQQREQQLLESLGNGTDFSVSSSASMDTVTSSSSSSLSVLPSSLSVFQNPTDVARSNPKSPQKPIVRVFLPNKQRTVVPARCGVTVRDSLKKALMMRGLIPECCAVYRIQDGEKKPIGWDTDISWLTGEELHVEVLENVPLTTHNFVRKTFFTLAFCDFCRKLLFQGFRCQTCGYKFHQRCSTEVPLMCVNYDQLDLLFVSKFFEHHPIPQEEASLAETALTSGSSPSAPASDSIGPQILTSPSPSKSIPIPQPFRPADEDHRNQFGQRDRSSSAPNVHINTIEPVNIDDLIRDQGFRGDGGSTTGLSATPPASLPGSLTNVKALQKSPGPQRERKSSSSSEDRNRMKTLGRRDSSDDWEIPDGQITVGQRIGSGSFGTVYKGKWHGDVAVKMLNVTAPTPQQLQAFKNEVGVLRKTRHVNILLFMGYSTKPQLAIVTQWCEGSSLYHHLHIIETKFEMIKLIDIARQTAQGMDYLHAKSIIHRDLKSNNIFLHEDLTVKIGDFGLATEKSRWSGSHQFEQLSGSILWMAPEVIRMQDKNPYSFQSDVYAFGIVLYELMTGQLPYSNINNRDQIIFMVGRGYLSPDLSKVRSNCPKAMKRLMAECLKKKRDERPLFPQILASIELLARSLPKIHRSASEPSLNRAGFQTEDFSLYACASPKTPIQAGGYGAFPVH

| pIC50 [1] | pIC50 [2] | Compound | also measured |
| --- | --- | --- | --- |
| 7.00 | 6.06 | CCCS(=O)(=O)Nc1ccc(F)c(Nc2ccc3ncnc(N(C)C)c3c2)c1Cl | – |
| 7.60 | 6.09 | CCCS(=O)(=O)Nc1ccc(F)c(Nc2ccc3nccnc3c2)c1Cl | – |
| 8.52 | 7.08 | CCCS(=O)(=O)Nc1ccc(Cl)c(N(C)c2ccc3ncn(C)c(=O)c3c2)c1F | – |
| 7.59 | 6.96 | CCCS(=O)(=O)Nc1ccc(F)c(N(CC)c2ccc3ncn(C)c(=O)c3c2)c1F | – |
| 8.10 | 6.94 | CCCS(=O)(=O)Nc1ccc(F)c(N(C)c2ccc3ncn(C)c(=O)c3c2)c1Cl | – |
| 6.07 | – | CCCS(=O)(=O)Nc1ccc(C)c(Nc2ccc3ncn(C)c(=O)c3c2)c1 | – |
| 7.48 | 6.93 | CCCS(=O)(=O)Nc1ccc(F)c(Nc2ccc3ncncc3c2)c1F | – |
| 7.96 | 7.21 | CCCS(=O)(=O)Nc1ccc(F)c(N(C)c2ccc3ncn(C)c(=O)c3c2)c1F | – |
| 7.96 | 6.88 | CCCS(=O)(=O)Nc1ccc(F)c(Nc2ccc3ncnc(NC)c3c2)c1Cl | – |
| 8.70 | 7.74 | CCCS(=O)(=O)Nc1ccc(F)c(Nc2ccc3ncn(-c4cnn(C)c4)c(=O)c3c2)c1Cl | – |
| 9.52 | 8.15 | CCCS(=O)(=O)Nc1cccc(Oc2ccc3ncn(C)c(=O)c3c2)c1C#N | – |
| 9.70 | 7.80 | CCCS(=O)(=O)Nc1ccc(Cl)c(Nc2ccc3ncn(C)c(=O)c3c2)c1C#N | – |
| 8.70 | 7.59 | CCCS(=O)(=O)Nc1ccc(F)c(Nc2ccc3ncn(C)c(=O)c3c2)c1Cl | Papp A→B [3]: > 8 ×10⁻⁶ cm/s; clearance [4]: 4.7 mL/min/kg; Vd [5]: 0.49 L/kg; AUC [6]: 282 µM·h; bioavailability [7]: 112% |
| 7.77 | 6.24 | CCCS(=O)(=O)Nc1ccc(F)c(Nc2ccc3ncn(Cc4ccccc4)c(=O)c3c2)c1Cl | – |
| 7.72 | 7.26 | CCCS(=O)(=O)Nc1ccc(F)c(Nc2ccc3ncn(C)c(=O)c3c2)c1F | – |
| 7.80 | 6.13 | CCCS(=O)(=O)Nc1ccc(F)c(Nc2ccc3ncnc(OC)c3c2)c1Cl | – |
| 7.52 | 6.22 | CCCS(=O)(=O)Nc1ccc(F)c(N(CC)c2ccc3ncn(C)c(=O)c3c2)c1Cl | – |
| 6.50 | 5.20 | CCCS(=O)(=O)Nc1ccc(F)c(Nc2ccc3ncccc3c2)c1F | – |
| 8.40 | 7.36 | CCCS(=O)(=O)Nc1ccc(F)c(Nc2ccc3ncncc3c2)c1Cl | – |
| 7.92 | 6.94 | CCCS(=O)(=O)Nc1ccc(Cl)c(Nc2ccc3ncn(C)c(=O)c3c2)c1F | – |
| 9.70 | 8.52 | CCCS(=O)(=O)Nc1ccc(F)c(Oc2ccc3ncn(C)c(=O)c3c2)c1C#N | – |
| 9.70 | 7.82 | CCCS(=O)(=O)Nc1ccc(Cl)c(Oc2ccc3ncn(C)c(=O)c3c2)c1C#N | – |
